Counter-ions that a name gives are not always drawn. Like-named read-outs stand apart in the source and are kept apart here.
How the values were obtained:
[1] = molecular target: PRMT5/MEP50 complex (Homo sapiens (Human), UniProt O14744); assay: Biochemical assay: PRMT5/MEP50 methylation of histone H2A with 3H-SAM, filter plate scintillation
Outline: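 5 nM PRMT5/MEP50 preincubated with compound 15–20 min at room temperature, with 5 μM histone H2A as substrate; reaction started with 1 μM 3H-SAM and run 60 min at 30 °C. TCA-stopped, filter-captured methylation counted by scintillation; IC50 from 4-parameter Hill fit.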

[2] = test system: Granta-519 cells; assay: Cell proliferation assay on Granta-519 cells (CCK-8, day 10); assay type: cell-based; details: Homo sapiens
Experimental: Cell Proliferation Assay to Determine IC50 on Granta-519 Cells
Granta-519 cells were maintained in PRMI 1640 (Corning Cellgro, Catalog #: 10-040-CV) medium supplemented with 10% v/v FBS (GE Healthcare, Catalog #: SH30910.03). Compounds were dissolved in DMSO to make 10 mM stocks and stored at −20° C. Nine-point, 3-fold serial dilutions were made with DMSO with top concentration at 1 mM (working stocks).
On day of experiment, compound working stocks were further diluted at 1:50 with fresh medium in 96 well plate, and 10 μL of diluted drugs were added to a new 96 well plate for proliferation assay. Cells growing at exponential phase were spun down at 1500 rpm for 4 min and resuspend in fresh medium to reach a density of 0.5×10^6 cells/ml. 200 ul of cells were added to 96 well plate containing diluted drugs and incubated for 3 days. DMSO was used a vehicle control.
One day 3, 10 μL of Cell Counting Kit-8 (CCK-8, Jojindo, CK04-13) solution was added to a new 96 well plate. Cells incubated with drugs for 3 days were resuspended by pipetting up and down, and 100 μL of cells were transferred to 96 well plate containing CCK-8 reagent to measure viable cells. Plates were incubated in C02 incubator for 2 hours and OD450 values were measured with a microplate reader (iMark microplate reader, Bio-Rad).
For re-plating, compound working stocks were diluted at 1:50 with fresh medium and 10 μL of diluted drugs were added to anew 96 well plate. Cells from Day 3plate (50 ul) were added to 96 well plate containing fresh drug and additional 150 of fresh medium was added to reach 200 ul volume. Plate was returned to CO2incubator and incubated for 3more days. Viable cells measurement and re-plating were repeated on day 6, and the final viable cells measurement was taken on day 10.
Percentage of viable cells, relative to DMSO vehicle control, were calculated and plotted in Graphpad Prism ([Inhibitor] vs. normalized response-Variable slope) to determine proliferation IC50 values on day 10.

[3] = test system: Symmetric Di-Methyl Arginine (sDMA) in Granta-519 cells; assay: Western blot for symmetric di-methyl arginine (sDMA) marks in Granta cells, 3 days treatment; assay type: cell-based; details: Homo sapiens, 3 days
Experimental: Cell Treatment and Western Blotting for Detecting Symmetric Di-Methyl Arginine (sDMA) and Histone H3R8 Dimethyl Symmetric (H3R8me2s) Marks
Initial compounds screening in A549 cells: Compounds were dissolved in DMSO to make 10 mM stock and further diluted to 0.1, and 1 mM. A549 cells were maintained in PRMI 1640 (Corning Cellgro, Catalog #: 10-040-CV) medium supplemented with 10% v/v FBS (GE Healthcare, Catalog #: SH30910.03). One day before experiment, 1.25×10^5 cells were seeded in 6 well plate in 3 mL medium and incubated overnight. The next day, medium was changed and 3 uL of compound solution was added (1:1,000 dilution, 0.1 and 1 uM final concentration; DMSO concentration: 0.1%), and incubated for 3 days. Cells incubated with DMSO was used as a vehicle control. Cells were washed once with PBS, trypsinized in 150 uL 0.25% Trypsin (Corning, Catalog #: 25-053-CI), neutralized with 1 mL complete medium, transferred to microcentrifuge tubes and collected. Cell pellet was then resuspended in 15 uL PBS, lysed in 4% SDS, and homogenized by passing through homogenizer column (Omega Biotek, Catalog #: HCR003). Total protein concentrations were determined by BCA assay (ThermoFisher Scientific, Catalog #: 23225). Lysates were mixed with 5× Laemmli buffer and boiled for 5 min. Forty ug of total protein was separated on SDS-PAGE gels (Bio-Rad, catalog #: 4568083, 4568043), transferred to PVDF membrane, blocked with 5% dry milk (Bio-Rad, Catalog #: 1706404) in TBS with 0.1% v/v Tween 20 (TBST) for 1 hour at room temperature (RT), and incubated with primary antibodies (sDMA: Cell signaling, Catalog #: 13222, 1:3,000; H3R8me2s: Epigentek, Catalog #: A-3706-100, 1:2,000; β-Actin: Abcam, Catalog #: ab8227, 1:10,000) in 5% dry milk in TBST at 4° C. for overnight. The next day, membranes were washed with TBST, 5×5 min, and incubated withhP conjugated seconded antibody (GE Healthcare; Catalog #: NA934-1ML; 1:5,000) for 2 hours at RT, followed by 5×5 min washes with TBST, and incubation with ECL substrates (Bio-Rad, Catalog #: 1705061, 1705062). Chemiluminescent signal was captured with FluoChem HD2 imager (Proteinsimple) and analyzed by ImageJ.
Cells incubated with DMSO was used as a vehicle control. Cells were harvested and subjected to western blot analysis as described above. SmD3me2s and H3R8me2s bands were quantified by ImageJ. Signals were normalized to β-Actin and DMSO control. IC50 values were calculated using Graphpad Prism.

[4] = histone H2A 5 μM, SAM 1 μM, enzyme 5 nM, read-out: PRMT5/MEP50 IC50

Sequence of PRMT5/MEP50 complex (O14744 whole entry): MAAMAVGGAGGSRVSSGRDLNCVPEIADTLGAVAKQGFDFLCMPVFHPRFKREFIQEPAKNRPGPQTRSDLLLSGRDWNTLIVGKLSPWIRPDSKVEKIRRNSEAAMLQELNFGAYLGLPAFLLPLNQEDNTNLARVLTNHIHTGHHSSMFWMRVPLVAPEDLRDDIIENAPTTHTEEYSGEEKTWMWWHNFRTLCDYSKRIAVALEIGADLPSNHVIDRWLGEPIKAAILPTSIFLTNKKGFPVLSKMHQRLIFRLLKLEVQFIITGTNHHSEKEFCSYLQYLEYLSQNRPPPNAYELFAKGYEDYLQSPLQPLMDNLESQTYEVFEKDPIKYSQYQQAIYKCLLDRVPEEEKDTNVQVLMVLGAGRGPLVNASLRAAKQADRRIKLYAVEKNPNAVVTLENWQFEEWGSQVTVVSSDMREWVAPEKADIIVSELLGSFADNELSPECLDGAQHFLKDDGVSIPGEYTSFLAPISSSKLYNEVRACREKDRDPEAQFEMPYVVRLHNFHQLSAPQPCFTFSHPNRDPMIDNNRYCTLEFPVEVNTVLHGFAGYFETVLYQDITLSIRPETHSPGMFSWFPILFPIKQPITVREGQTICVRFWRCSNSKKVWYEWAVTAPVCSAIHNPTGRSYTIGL
Sequence of PRMT5/MEP50 complex (Q9BQA1 whole entry partner): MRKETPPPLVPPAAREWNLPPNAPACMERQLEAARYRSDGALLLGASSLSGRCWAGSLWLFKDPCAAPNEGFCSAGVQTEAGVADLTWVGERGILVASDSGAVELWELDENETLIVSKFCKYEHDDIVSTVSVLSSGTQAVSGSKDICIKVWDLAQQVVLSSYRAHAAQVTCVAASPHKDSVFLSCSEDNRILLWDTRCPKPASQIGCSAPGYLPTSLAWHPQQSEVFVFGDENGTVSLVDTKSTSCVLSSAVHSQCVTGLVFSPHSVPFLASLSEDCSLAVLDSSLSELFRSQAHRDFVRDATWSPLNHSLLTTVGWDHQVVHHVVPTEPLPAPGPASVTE

IC50 ([1]; biochemical potency, read-out: PRTMT5/MEP50 IC50) | IC50 ([3]; Granta-519, 72 h, Granta cell line) | IC50 [1, 4] | IC50 ([3]; 72 h, Granta-519 cell line) | SMILES | IC50 ([2]; Granta-519, 240 h, Granta cell line, read-out: Prolif. IC50) | IC50 ([2]; 240 h, Granta-519 cell line, read-out: Proliferation IC50)
0.82 nM | 28 nM | – | – | CO/N=c1\nc[nH]c2c1ccn2[C@@H]1C[C@H](CCc2ccc3ccc(NCC4CC4)nc3c2)[C@@H](O)[C@H]1O [Example 90-B, 7-((1R,2S,3R,4S)-4-(2-(2-((cyclopropylmethyl)amino)quinolin-7-yl)ethyl)-2,3-dihydroxycyclopentyl)-1,7-dihydro-4H-pyrrolo[2,3-d]pyrimidin-4-one O-methyl oxime] | 229 nM | –
– | – | 2.4 nM | 8.4 nM | CCO/N=c1/nc[nH]c2c1ccn2[C@@H]1O[C@H]([C@](C)(O)c2ccc(Cl)c(Cl)c2)[C@@H](O)[C@H]1O [Example 99, 7-((2R,3R,4S,5S)-5-((R)-1-(3,4-dichlorophenyl)-1-hydroxyethyl)-3,4-dihydroxytetrahydrofuran-2-yl)-1,7-dihydro-4H-pyrrolo[2,3-d]pyrimidin-4-one O-ethyl oxime] | – | 94 nM
– | – | 0.7 nM | 10.8 nM | O/N=c1/nc[nH]c2c1ccn2[C@@H]1O[C@H]([C@H](O)c2ccc(Cl)c(F)c2)[C@@H](O)[C@H]1O [compound 63, 7-((2R,3R,4S,5R)-5-((R)-(4-chloro-3-fluorophenyl)(hydroxy)methyl)-3,4-dihydroxytetrahydrofuran-2-yl)-1,7-dihydro-4H-pyrrolo[2,3-d]pyrimidin-4-one oxime] | – | –
– | – | 8.3 nM | 93 nM | CN/N=c1\nc[nH]c2c1ccn2[C@@H]1O[C@H]([C@H](O)c2ccc(Cl)cc2)[C@@H](O)[C@H]1O [compound 64, (2R,3S,4R,5R)-2-[(R)-(4-chlorophenyl)-hydroxy-methyl]-5-[4-(methylhydrazono)-1H-pyrrolo[2,3-d]pyrimidin-7-yl]tetrahydrofuran-3,4-diol hydrochloride] | – | –
– | – | 1.9 nM | 16 nM | O/N=c1/nc[nH]c2c1ccn2[C@@H]1O[C@H]([C@H](O)c2ccc(F)c(Cl)c2)[C@@H](O)[C@H]1O [compound 65, 7-((2R,3R,4S,5R)-5-((R)-(3-chloro-4-fluorophenyl)(hydroxy)methyl)-3,4-dihydroxytetrahydrofuran-2-yl)-1,7-dihydro-4H-pyrrolo[2,3-d]pyrimidin-4-one oxime] | – | –
– | – | 0.4 nM | 1.8 nM | O/N=c1\nc[nH]c2c1ccn2[C@@H]1O[C@H]([C@H](O)c2ccc(Cl)c(Cl)c2)[C@@H](O)[C@H]1O [compound 66, 7-((2R,3R,4S,5R)-5-((R)-(3,4-dichlorophenyl)(hydroxy)methyl)-3,4-dihydroxytetrahydrofuran-2-yl)-1,7-dihydro-4H-pyrrolo[2,3-d]pyrimidin-4-one oxime] | – | –
– | – | 0.6 nM | 10 nM | O/N=c1\nc[nH]c2c1ccn2[C@@H]1O[C@H]([C@H](O)c2ccc(F)c(F)c2)[C@@H](O)[C@H]1O [compound 67, 7-((2R,3R,4S,5R)-5-((R)-(3,4-difluorophenyl)(hydroxy)methyl)-3,4-dihydroxytetrahydrofuran-2-yl)-1,7-dihydro-4H-pyrrolo[2,3-d]pyrimidin-4-one oxime] | – | –
– | – | 35 nM | 90 nM | CO/N=c1/nc[nH]c2c1ccn2[C@@H]1O[C@H]([C@H](O)c2ccc(F)c(Cl)c2)[C@@H](O)[C@H]1O [compound 68, 7-((2R,3R,4S,5R)-5-((R)-(3-chloro-4-fluorophenyl)(hydroxy)methyl)-3,4-dihydroxytetrahydrofuran-2-yl)-1,7-dihydro-4H-pyrrolo[2,3-d]pyrimidin-4-one O-methyl oxime] | – | –
– | – | 13.9 nM | 260 nM | Cc1n/c(=N\O)c2ccn([C@@H]3O[C@H]([C@H](O)c4ccc(Cl)cc4)[C@@H](O)[C@H]3O)c2[nH]1 [compound 71, 7-((2R,3R,4S,5R)-5-((R)-(4-chlorophenyl)(hydroxy)methyl)-3,4-dihydroxytetrahydrofuran-2-yl)-2-methyl-1,7-dihydro-4H-pyrrolo[2,3-d]pyrimidin-4-one oxime] | – | –
– | – | 2.8 nM | 41 nM | O/N=c1/nc[nH]c2c1c(F)cn2[C@@H]1O[C@H]([C@H](O)c2ccc(Cl)cc2)[C@@H](O)[C@H]1O [compound 72, 7-((2R,3R,4S,5R)-5-((R)-(4-chlorophenyl)(hydroxy)methyl)-3,4-dihydroxytetrahydrofuran-2-yl)-5-fluoro-1,7-dihydro-4H-pyrrolo[2,3-d]pyrimidin-4-one oxime] | – | –
– | – | 9.7 nM | 313 nM | N/N=c1/nc[nH]c2c1c(F)cn2[C@@H]1O[C@H]([C@H](O)c2ccc(Cl)cc2)[C@@H](O)[C@H]1O [compound 73, (2R,3S,4R,5R)-2-((R)-(4-chlorophenyl)(hydroxy)methyl)-5-(5-fluoro-4-hydrazineylidene-1,4-dihydro-7H-pyrrolo[2,3-d]pyrimidin-7-yl)tetrahydrofuran-3,4-diol] | – | –
– | – | 3.1 nM | 33 nM | CO/N=c1/nc[nH]c2c1ccn2[C@@H]1O[C@H]([C@H](O)c2ccc(C(F)(F)F)c(F)c2)[C@@H](O)[C@H]1O [compound 78, 7-((2R,3R,4S,5R)-5-((R)-(3-fluoro-4-(trifluoromethyl)phenyl)(hydroxy)methyl)-3,4-dihydroxytetrahydrofuran-2-yl)-1,7-dihydro-4H-pyrrolo[2,3-d]pyrimidin-4-one O-methyl oxime] | – | –
– | – | 0.7 nM | 18 nM | CO/N=c1/nc[nH]c2c1ccn2[C@@H]1O[C@H]([C@H](O)c2ccc(Cl)c(C)c2)[C@@H](O)[C@H]1O [compound 80, 7-((2R,3R,4S,5R)-5-((R)-(4-chloro-3-methylphenyl)(hydroxy)methyl)-3,4-dihydroxytetrahydrofuran-2-yl)-1,7-dihydro-4H-pyrrolo[2,3-d]pyrimidin-4-one O-methyl oxime] | – | –
– | – | 0.3 nM | 9 nM | CN/N=c1\nc[nH]c2c1ccn2[C@@H]1O[C@H]([C@H](O)c2ccc(Cl)c(Cl)c2)[C@@H](O)[C@H]1O [compound 81, (2R,3S,4R,5R)-2-((R)-(3,4-dichlorophenyl)(hydroxy)methyl)-5-(4-(2-methylhydrazineylidene)-1,4-dihydro-7H-pyrrolo[2,3-d]pyrimidin-7-yl)tetrahydrofuran-3,4-diol] | – | –
– | – | 3.9 nM | 11 nM | CCO/N=c1/[nH]cnc2c1ccn2[C@@H]1O[C@H]([C@H](O)c2ccc(Cl)c(Cl)c2)[C@@H](O)[C@H]1O [compound 82, 7-((2R,3R,4S,5R)-5-((R)-(3,4-dichlorophenyl)(hydroxy)methyl)-3,4-dihydroxytetrahydrofuran-2-yl)-3,7-dihydro-4H-pyrrolo[2,3-d]pyrimidin-4-one O-ethyl oxime] | – | –

— patent publication US11220524B2, “Selective inhibitors of protein arginine methyltransferase 5 (PRMT5)” (PRELUDE THERAPEUTICS, INCORPORATED, priority 2017, dated 2022)
